Measurements reported in paper PMC6409085, “Three odorant-binding proteins are involved in the behavioral response of Sogatella furcifera to rice plant volatiles” (PeerJ, 2019).
Values joined by “and” are separate entries in the source; they are usually repeats but may differ in a detail not shown here. Equal values may be shown once.

What was measured:
S. furcifera adults = assay: Y-tube olfactometer behavioral trials; format: in vivo, Sogatella furcifera; settings: odorant 50 µL/L vs hexane
Procedure, shortened: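 Single S. furcifera adults (2 days post-emergence, starved 0.5 h) chose between odorant (100 µL of 50 µL/L on filter paper) and hexane control in a glass Y-tube, charcoal-filtered humidified air 300 mL/min per arm, 25 ± 1 °C, 50% RH. Choice scored if insect passed half an arm and stayed >1 min within 10 min; 45 insects per compound, chi-squared test.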

SfurOBP3 = SfurOBP3 (Sogatella furcifera, UniProt V5T818); assay: biochemical; format: binding; settings: for Fluorescence competitive binding assay, fluorescence intensity: OBP3, three replicate columns
SfurOBP3, sequence (V5T818 entry or part of it): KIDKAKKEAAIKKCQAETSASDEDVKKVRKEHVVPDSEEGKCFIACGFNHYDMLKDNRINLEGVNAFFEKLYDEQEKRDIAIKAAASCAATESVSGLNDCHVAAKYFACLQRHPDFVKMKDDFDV
Procedure, shortened: (§1)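 K1-NPN came from titrating 2.0 µM protein (50 mM Tris-HCl, pH 7.4) with 1-NPN. Odorants at 2-20 µM then competed against 2.0 µM protein plus 2.0 µM 1-NPN for 2 min, with excitation at 337 nm and emission recorded over 390-490 nm. IC50 values were converted to Ki via Ki = IC50/(1 + [1-NPN]/K1-NPN).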

SfurOBP1 = SfurOBP1 (Sogatella furcifera, UniProt V5T8N5); assay: biochemical; format: binding; settings: for Fluorescence competitive binding assay, fluorescence intensity: OBP1, three replicate columns
SfurOBP1, sequence (V5T8N5 entry or part of it): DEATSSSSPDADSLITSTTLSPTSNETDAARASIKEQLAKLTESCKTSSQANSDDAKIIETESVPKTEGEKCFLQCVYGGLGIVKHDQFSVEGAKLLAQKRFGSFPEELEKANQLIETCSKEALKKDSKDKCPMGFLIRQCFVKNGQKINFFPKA
Procedure, shortened: as §1

SfurOBP2 = SfurOBP2 (Sogatella furcifera, UniProt V5T759); assay: biochemical; format: binding
SfurOBP2, sequence (V5T759 entry or part of it): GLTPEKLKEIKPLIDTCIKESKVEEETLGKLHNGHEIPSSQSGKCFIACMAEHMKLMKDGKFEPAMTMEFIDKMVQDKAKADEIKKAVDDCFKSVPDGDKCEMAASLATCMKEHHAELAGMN
Procedure, shortened: as §1

SfurOBP11 = SfurOBP11 (Sogatella furcifera, UniProt V5T6E3); assay: biochemical; format: binding
SfurOBP11, sequence (V5T6E3 entry or part of it): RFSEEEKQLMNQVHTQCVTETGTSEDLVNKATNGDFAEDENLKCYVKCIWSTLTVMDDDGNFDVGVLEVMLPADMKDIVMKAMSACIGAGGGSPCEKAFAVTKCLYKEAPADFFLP
Procedure, shortened: as §1

Structure (SMILES): CC(=O)/C=C/C1=C(C)CCCC1(C)C [β-Ionone]
- behavioral response of S. furcifera (in words) (S. furcifera adults): strongly attracted
- number of insects choosing hexane arm (S. furcifera adults; adults): 18
- number of insects choosing volatilies arm (S. furcifera adults; adults): 10
- number of insects failed (no choice) (S. furcifera adults; adults): 12
- IC50 (SfurOBP3): 12 µM
- Fluorescence competitive binding assay, fluorescence intensity (SfurOBP3; ligand concentration 2): 49137 and 48472 and 49801
- Fluorescence competitive binding assay, fluorescence intensity (SfurOBP3; ligand concentration 4): 47017 and 46358 and 43965
- Fluorescence competitive binding assay, fluorescence intensity (SfurOBP3; ligand concentration 6): 39740 and 42626 and 39389
- Fluorescence competitive binding assay, fluorescence intensity (SfurOBP3; ligand concentration 8): 37430 and 36910 and 36009
- Fluorescence competitive binding assay, fluorescence intensity (SfurOBP3; ligand concentration 10): 35904 and 33157 and 32677
- Fluorescence competitive binding assay, fluorescence intensity (SfurOBP3; ligand concentration 12): 30694 and 33051 and 28374
- Fluorescence competitive binding assay, fluorescence intensity (SfurOBP3; ligand concentration 14): 26192 and 26407 and 26489
- Fluorescence competitive binding assay, fluorescence intensity (SfurOBP3; ligand concentration 16): 23097 and 23904 and 24653
- Fluorescence competitive binding assay, fluorescence intensity (SfurOBP3; ligand concentration 18): 23846 and 23655 and 23476
- Fluorescence competitive binding assay, fluorescence intensity (SfurOBP3; ligand concentration 20): 21994 and 24647 and 23321
- binding affinity to SfurOBP3 (in words) (SfurOBP3; SfurOBP3): high binding affinities
- IC50 (SfurOBP1): > 20 µM
- Fluorescence competitive binding assay, fluorescence intensity (SfurOBP1; ligand concentration 2 (μM)): 7051 and 7963 and 8084
- Fluorescence competitive binding assay, fluorescence intensity (SfurOBP1; ligand concentration 4 (μM)): 8179 and 8456 and 7621
- Fluorescence competitive binding assay, fluorescence intensity (SfurOBP1; ligand concentration 6 (μM)): 7891 and 8214 and 10941
- Fluorescence competitive binding assay, fluorescence intensity (SfurOBP1; ligand concentration 8 (μM)): 7486 and 8333 and 7729
- Fluorescence competitive binding assay, fluorescence intensity (SfurOBP1; ligand concentration 10 (μM)): 7166 and 7631 and 8078
- Fluorescence competitive binding assay, fluorescence intensity (SfurOBP1; ligand concentration 12 (μM)): 13786 and 8045 and 7592
- Fluorescence competitive binding assay, fluorescence intensity (SfurOBP1; ligand concentration 14 (μM)): 7676 and 7139 and 7314
- Fluorescence competitive binding assay, fluorescence intensity (SfurOBP1; ligand concentration 16 (μM)): 6374 and 6355 and 6393
- Fluorescence competitive binding assay, fluorescence intensity (SfurOBP1; ligand concentration 18 (μM)): 6677 and 6433 and 6722
- Fluorescence competitive binding assay, fluorescence intensity (SfurOBP1; ligand concentration 20 (μM)): 6744 and 6442 and 6578
- IC50 (SfurOBP2): 20 µM
- Fluorescence competitive binding assay, OBP2 (raw fluorescence reading) (SfurOBP2; ligand concentration 2 (unit not given), replicate column 1 of 3): 20663
- Fluorescence competitive binding assay, OBP2 (raw fluorescence reading) (SfurOBP2; ligand concentration 2 (unit not given), replicate column 2 of 3): 19168
- Fluorescence competitive binding assay, OBP2 (raw fluorescence reading) (SfurOBP2; ligand concentration 2 (unit not given), replicate column 3 of 3): 19828
- Fluorescence competitive binding assay, OBP2 (raw fluorescence reading) (SfurOBP2; ligand concentration 4 (unit not given), replicate column 1 of 3): 20326
- Fluorescence competitive binding assay, OBP2 (raw fluorescence reading) (SfurOBP2; ligand concentration 4 (unit not given), replicate column 2 of 3): 19347
- Fluorescence competitive binding assay, OBP2 (raw fluorescence reading) (SfurOBP2; ligand concentration 4 (unit not given), replicate column 3 of 3): 18863
- Fluorescence competitive binding assay, OBP2 (raw fluorescence reading) (SfurOBP2; ligand concentration 6 (unit not given), replicate column 1 of 3): 19895
- Fluorescence competitive binding assay, OBP2 (raw fluorescence reading) (SfurOBP2; ligand concentration 6 (unit not given), replicate column 2 of 3): 18583
- Fluorescence competitive binding assay, OBP2 (raw fluorescence reading) (SfurOBP2; ligand concentration 6 (unit not given), replicate column 3 of 3): 19617
- Fluorescence competitive binding assay, OBP2 (raw fluorescence reading) (SfurOBP2; ligand concentration 8 (unit not given), replicate column 1 of 3): 17627
- Fluorescence competitive binding assay, OBP2 (raw fluorescence reading) (SfurOBP2; ligand concentration 8 (unit not given), replicate column 2 of 3): 19078
- Fluorescence competitive binding assay, OBP2 (raw fluorescence reading) (SfurOBP2; ligand concentration 8 (unit not given), replicate column 3 of 3): 16731
- Fluorescence competitive binding assay, OBP2 (raw fluorescence reading) (SfurOBP2; ligand concentration 10 (unit not given), replicate column 1 of 3): 16901
- Fluorescence competitive binding assay, OBP2 (raw fluorescence reading) (SfurOBP2; ligand concentration 10 (unit not given), replicate column 2 of 3): 16412
- Fluorescence competitive binding assay, OBP2 (raw fluorescence reading) (SfurOBP2; ligand concentration 10 (unit not given), replicate column 3 of 3): 15901
- Fluorescence competitive binding assay, OBP2 (raw fluorescence reading) (SfurOBP2; ligand concentration 12 (unit not given), replicate column 1 of 3): 15640
- Fluorescence competitive binding assay, OBP2 (raw fluorescence reading) (SfurOBP2; ligand concentration 12 (unit not given), replicate column 2 of 3): 15758
- Fluorescence competitive binding assay, OBP2 (raw fluorescence reading) (SfurOBP2; ligand concentration 12 (unit not given), replicate column 3 of 3): 15363
- Fluorescence competitive binding assay, OBP2 (raw fluorescence reading) (SfurOBP2; ligand concentration 14 (unit not given), replicate column 1 of 3): 13711
- Fluorescence competitive binding assay, OBP2 (raw fluorescence reading) (SfurOBP2; ligand concentration 14 (unit not given), replicate column 2 of 3): 13915
- Fluorescence competitive binding assay, OBP2 (raw fluorescence reading) (SfurOBP2; ligand concentration 14 (unit not given), replicate column 3 of 3): 13962
- Fluorescence competitive binding assay, OBP2 (raw fluorescence reading) (SfurOBP2; ligand concentration 16 (unit not given), replicate column 1 of 3): 12366
- Fluorescence competitive binding assay, OBP2 (raw fluorescence reading) (SfurOBP2; ligand concentration 16 (unit not given), replicate column 2 of 3): 12873
- Fluorescence competitive binding assay, OBP2 (raw fluorescence reading) (SfurOBP2; ligand concentration 16 (unit not given), replicate column 3 of 3): 12910
- Fluorescence competitive binding assay, OBP2 (raw fluorescence reading) (SfurOBP2; ligand concentration 18 (unit not given), replicate column 1 of 3): 12338
- Fluorescence competitive binding assay, OBP2 (raw fluorescence reading) (SfurOBP2; ligand concentration 18 (unit not given), replicate column 2 of 3): 12028
- Fluorescence competitive binding assay, OBP2 (raw fluorescence reading) (SfurOBP2; ligand concentration 18 (unit not given), replicate column 3 of 3): 11737
- Fluorescence competitive binding assay, OBP2 (raw fluorescence reading) (SfurOBP2; ligand concentration 20 (unit not given), replicate column 1 of 3): 11557
- Fluorescence competitive binding assay, OBP2 (raw fluorescence reading) (SfurOBP2; ligand concentration 20 (unit not given), replicate column 2 of 3): 10983
- Fluorescence competitive binding assay, OBP2 (raw fluorescence reading) (SfurOBP2; ligand concentration 20 (unit not given), replicate column 3 of 3): 11423
- IC50 (SfurOBP11): 19.9 µM
- Fluorescence intensity, fluorescence competitive binding assay, OBP11 (SfurOBP11; ligand concentration 2, replicate 1): 28050
- Fluorescence intensity, fluorescence competitive binding assay, OBP11 (SfurOBP11; ligand concentration 2, replicate 2): 27736
- Fluorescence intensity, fluorescence competitive binding assay, OBP11 (SfurOBP11; ligand concentration 2, replicate 3): 27612
- Fluorescence intensity, fluorescence competitive binding assay, OBP11 (SfurOBP11; ligand concentration 4, replicate 1): 28634
- Fluorescence intensity, fluorescence competitive binding assay, OBP11 (SfurOBP11; ligand concentration 4, replicate 2): 28801
- Fluorescence intensity, fluorescence competitive binding assay, OBP11 (SfurOBP11; ligand concentration 4, replicate 3): 26168
- Fluorescence intensity, fluorescence competitive binding assay, OBP11 (SfurOBP11; ligand concentration 6, replicate 1): 26910
- Fluorescence intensity, fluorescence competitive binding assay, OBP11 (SfurOBP11; ligand concentration 6, replicate 2): 26403
- Fluorescence intensity, fluorescence competitive binding assay, OBP11 (SfurOBP11; ligand concentration 6, replicate 3): 26657
- Fluorescence intensity, fluorescence competitive binding assay, OBP11 (SfurOBP11; ligand concentration 8, replicate 1): 23184
- Fluorescence intensity, fluorescence competitive binding assay, OBP11 (SfurOBP11; ligand concentration 8, replicate 2): 24499
- Fluorescence intensity, fluorescence competitive binding assay, OBP11 (SfurOBP11; ligand concentration 8, replicate 3): 24103
- Fluorescence intensity, fluorescence competitive binding assay, OBP11 (SfurOBP11; ligand concentration 10, replicate 1): 21871
- Fluorescence intensity, fluorescence competitive binding assay, OBP11 (SfurOBP11; ligand concentration 10, replicate 2): 21831
- Fluorescence intensity, fluorescence competitive binding assay, OBP11 (SfurOBP11; ligand concentration 10, replicate 3): 22447
- Fluorescence intensity, fluorescence competitive binding assay, OBP11 (SfurOBP11; ligand concentration 12, replicate 1): 20048
- Fluorescence intensity, fluorescence competitive binding assay, OBP11 (SfurOBP11; ligand concentration 12, replicate 2): 20727
- Fluorescence intensity, fluorescence competitive binding assay, OBP11 (SfurOBP11; ligand concentration 12, replicate 3): 21593
- Fluorescence intensity, fluorescence competitive binding assay, OBP11 (SfurOBP11; ligand concentration 14, replicate 1): 17047
- Fluorescence intensity, fluorescence competitive binding assay, OBP11 (SfurOBP11; ligand concentration 14, replicate 2): 18839
- Fluorescence intensity, fluorescence competitive binding assay, OBP11 (SfurOBP11; ligand concentration 14, replicate 3): 19615
- Fluorescence intensity, fluorescence competitive binding assay, OBP11 (SfurOBP11; ligand concentration 16, replicate 1): 15254
- Fluorescence intensity, fluorescence competitive binding assay, OBP11 (SfurOBP11; ligand concentration 16, replicate 2): 16765
- Fluorescence intensity, fluorescence competitive binding assay, OBP11 (SfurOBP11; ligand concentration 16, replicate 3): 16613
- Fluorescence intensity, fluorescence competitive binding assay, OBP11 (SfurOBP11; ligand concentration 18, replicate 1): 17103
- Fluorescence intensity, fluorescence competitive binding assay, OBP11 (SfurOBP11; ligand concentration 18, replicate 2): 17364
- Fluorescence intensity, fluorescence competitive binding assay, OBP11 (SfurOBP11; ligand concentration 18, replicate 3): 18167
- Fluorescence intensity, fluorescence competitive binding assay, OBP11 (SfurOBP11; ligand concentration 20, replicate 1): 16580
- Fluorescence intensity, fluorescence competitive binding assay, OBP11 (SfurOBP11; ligand concentration 20, replicate 2): 17841
- Fluorescence intensity, fluorescence competitive binding assay, OBP11 (SfurOBP11; ligand concentration 20, replicate 3): 17555
